This note sets out measurements from patent US12564638B2 (SHANGHAITECH UNIVERSITY, priority 2019, dated 2026).

The first test deals with HCC827 cells (EGFR Exon19 del, non-small cell lung cancer cells). The experiment in a line: Cell viability assay (WST/CCK8), HCC827 cells. It counts as cell-based. The following applies: HCC827 cells, 72 hours. The method, boiled down: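 Plated 3 000 cells/well in complete RPMI1640 the day before dosing; controls were DMSO (negative) and EGFR TKIs (positive).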
On to `COc1cc2ncnc(Nc3cccc(Cl)c3F)c2cc1OC1CCN(CC(=O)NCCCCSc2cccc3c2CN(C2CCC(=O)NC2=O)C3=O)CC1` (stereo not drawn) [SIAIS293067, 2-(4-((4-((3-chloro-2-fluorophenyl)amino)-7-methoxyquinazolin-6-yl)oxy)piperidin-1-yl)-N-(4-((2-(2,6-dioxopiperidin-3-yl)-1-oxoisoindolin-4-yl)thio)butyl)acetamide], for which the “cell proliferation inhibition (in words)” value is recorded as “better than sapitinib on cell killing”.

The test is the same for the next values; noted with them: Homo sapiens, HCC827, 72 h, HCC827 (Exon19 Del), 72 hours, WST (CCK8); read-out: IC50 (half inhibitory concentration).
Take `COc1cc2ncnc(Nc3ccc(F)c(Cl)c3)c2cc1NC(=O)/C=C/CN1CCC(N2CCN(CCCCCCCCCCCSc3cccc4c3CN(C3CCC(=O)NC3=O)C4=O)CC2)CC1` (stereo not drawn) [SIAIS337040, (E)-N-(4-((3-chloro-4-fluorophenyl)amino)-7-methoxyquinazolin-6-yl)-4-(4-(4-(11-((2-(2,6-dioxopiperidin-3-yl)-1-oxoisoindolin-4-yl)thio)undecyl)piperazin-1-yl)piperidin-1-yl)but-2-enamide]: the IC50 came to 26.8 nM.

The test is the same for the next values; noted with them: Homo sapiens, HCC827, 72 h, Table 4, gefitinib and sapitinib-based compounds; HCC827 (Exon19 Del); 72 hours; WST; read-out: IC50 (half inhibitory concentration).
Regarding `COc1cc2ncnc(Nc3ccc(F)c(Cl)c3)c2cc1OC1CCN(CC(=O)NCCCCCCSc2cccc3c2CN(C2CCC(=O)NC2=O)C3=O)CC1` (stereo not drawn) [SIAIS293050, 2-(4-((4-((3-chloro-4-fluorophenyl)amino)-7-methoxyquinazolin-6-yl)oxy)piperidin-1-yl)-N-(6-((2-(2,6-dioxopiperidin-3-yl)-1-oxoisoindolin-4-yl)thio)hexyl)acetamide], the IC50 was 1.5 nM.

As for `COc1cc2ncnc(Nc3ccc(F)c(Cl)c3)c2cc1OC1CCN(CC(=O)NCCCCCCCSc2cccc3c2CN(C2CCC(=O)NC2=O)C3=O)CC1` (stereo not drawn) [SIAIS293051, 2-(4-((4-((3-chloro-4-fluorophenyl)amino)-7-methoxyquinazolin-6-yl)oxy)piperidin-1-yl)-N-(7-((2-(2,6-dioxopiperidin-3-yl)-1-oxoisoindolin-4-yl)thio)heptyl)acetamide], the IC50 turned out to be 6.5 nM.

Regarding `COc1cc2ncnc(Nc3ccc(F)c(Cl)c3)c2cc1OC1CCN(CC(=O)NCCCCCCCCSc2cccc3c2CN(C2CCC(=O)NC2=O)C3=O)CC1` (stereo not drawn) [SIAIS293052, 2-(4-((4-((3-chloro-4-fluorophenyl)amino)-7-methoxyquinazolin-6-yl)oxy)piperidin-1-yl)-N-(8-((2-(2,6-dioxopiperidin-3-yl)-1-oxoisoindolin-4-yl)thio)octyl)acetamide], the IC50 was found to be 0.25 nM.

For `COc1cc2ncnc(Nc3cccc(Cl)c3F)c2cc1OC1CCN(CC(=O)NCCCCSc2cccc3c2CN(C2CCC(=O)NC2=O)C3=O)CC1` (stereo not drawn) [SIAIS293067, 2-(4-((4-((3-chloro-2-fluorophenyl)amino)-7-methoxyquinazolin-6-yl)oxy)piperidin-1-yl)-N-(4-((2-(2,6-dioxopiperidin-3-yl)-1-oxoisoindolin-4-yl)thio)butyl)acetamide], the IC50 was found to be 0.3 nM.

As to `COc1cc2ncnc(Nc3cccc(Cl)c3F)c2cc1OC1CCN(CC(=O)NCCCCCCSc2cccc3c2CN(C2CCC(=O)NC2=O)C3=O)CC1` (stereo not drawn) [SIAIS293068, 2-(4-((4-((3-chloro-2-fluorophenyl)amino)-7-methoxyquinazolin-6-yl)oxy)piperidin-1-yl)-N-(6-((2-(2,6-dioxopiperidin-3-yl)-1-oxoisoindolin-4-yl)thio)hexyl)acetamide], the IC50 turned out to be 1.2 nM.

Turning to `COc1cc2ncnc(Nc3cccc(Cl)c3F)c2cc1OC1CCN(CC(=O)NCCCCCCCSc2cccc3c2CN(C2CCC(=O)NC2=O)C3=O)CC1` (stereo not drawn) [SIAIS293069, 2-(4-((4-((3-chloro-2-fluorophenyl)amino)-7-methoxyquinazolin-6-yl)oxy)piperidin-1-yl)-N-(7-((2-(2,6-dioxopiperidin-3-yl)-1-oxoisoindolin-4-yl)thio)heptyl)acetamide], the IC50 came to 9.4 nM.

In the case of `COc1cc2ncnc(Nc3cccc(Cl)c3F)c2cc1OC1CCN(CC(=O)NCCCCCCCCSc2cccc3c2CN(C2CCC(=O)NC2=O)C3=O)CC1` (stereo not drawn) [SIAIS293070, 2-(4-((4-((3-chloro-2-fluorophenyl)amino)-7-methoxyquinazolin-6-yl)oxy)piperidin-1-yl)-N-(8-((2-(2,6-dioxopiperidin-3-yl)-1-oxoisoindolin-4-yl)thio)octyl)acetamide], the IC50 was 14 nM.
